Test system: DMS-114 complex spheroids with HUVEC/MSC, growth % test/control
Assay: Anticancer human tumor DMS-114 cell line growth inhibition [AhR];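 note: spheroids exposed to agents for 7 days before readout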;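 for viability, T/C: 100% = DMSO vehicle control wells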
Conditions: for IC50: curve of first compound; for viability, T/C: stronger effect = lower value
How it was run: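 Complex tumor spheroids co-cultured with HUVEC and human MSC stroma; AhR antagonists tested in combination with standard-of-care and investigational agents. Top concentration at or near clinical Cmax (else 10 microM), half-log dilutions; growth expressed as percent test/control.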

[1] = second compound 0.1 µM, first compound 0.0316 µM
[2] = second compound 0.1 µM, first compound 0.1 µM
[3] = second compound 0.316 µM, first compound 0.0316 µM
[4] = second compound 0.316 µM, first compound 0.1 µM
[5] = second compound 1 µM, first compound 0.0316 µM
[6] = second compound 1 µM, first compound 0.1 µM
[7] = second compound 3.16 µM, first compound 0.0316 µM
[8] = second compound 3.16 µM, first compound 0.1 µM
[9] = second compound 10 µM, first compound 0.0316 µM
[10] = second compound 10 µM, first compound 0.1 µM
[11] = second compound 0.1 µM, first compound 0.00949 µM
[12] = second compound 0.1 µM, first compound 0.03 µM
[13] = second compound 0.1 µM, first compound 0.0949 µM
[14] = second compound 0.1 µM, first compound 0.3 µM
[15] = second compound 0.316 µM, first compound 0.00949 µM
[16] = second compound 0.316 µM, first compound 0.03 µM
[17] = second compound 0.316 µM, first compound 0.0949 µM
[18] = second compound 0.316 µM, first compound 0.3 µM
[19] = second compound 1 µM, first compound 0.00949 µM
[20] = second compound 1 µM, first compound 0.03 µM
[21] = second compound 1 µM, first compound 0.0949 µM
[22] = second compound 1 µM, first compound 0.3 µM
[23] = second compound 3.16 µM, first compound 0.00949 µM
[24] = second compound 3.16 µM, first compound 0.03 µM
[25] = second compound 3.16 µM, first compound 0.0949 µM
[26] = second compound 3.16 µM, first compound 0.3 µM
[27] = second compound 10 µM, first compound 0.00949 µM
[28] = second compound 10 µM, first compound 0.03 µM
[29] = second compound 10 µM, first compound 0.0949 µM
[30] = second compound 10 µM, first compound 0.3 µM

`CC1(C)CCC(CN2CCN(c3ccc(C(=O)NS(=O)(=O)c4ccc(NCC5CCOCC5)c([N+](=O)[O-])c4)c(Oc4cnc5[nH]ccc5c4)c3)CC2)=C(c2ccc(Cl)cc2)C1` + CC(CO)NC(=O)c1cc(-c2ccc(Cl)cc2)nn(-c2cnn(C)c2)c1=O was tested, and the IC50 (second compound 0.1 µM) was greater than 10000 nM, the IC50 (second compound 0.316 µM) was greater than 10000 nM and the IC50 (second compound 1 µM) was greater than 10000 nM. For the same molecule, the IC50 (second compound 3.16 µM) was greater than 10000 nM, the IC50 (second compound 10 µM) was greater than 10000 nM and the viability, T/C [1] was 99.3%. The viability, T/C [2] was 101%, the viability, T/C (second compound 0.1 µM, first compound 0.316 µM) was 107% and the viability, T/C (second compound 0.1 µM, first compound 1 µM) was 93.1%. The viability, T/C (second compound 0.1 µM, first compound 3.16 µM) was 104%, the viability, T/C (second compound 0.1 µM, first compound 10 µM) was 67.2% and the viability, T/C [3] was 95.7%. For the same molecule, the viability, T/C [4] was 114%, the viability, T/C (second compound 0.316 µM, first compound 0.316 µM) was 104% and the viability, T/C (second compound 0.316 µM, first compound 1 µM) was 87.6%. It also gave a viability, T/C (second compound 0.316 µM, first compound 3.16 µM) of 92.3%, a viability, T/C (second compound 0.316 µM, first compound 10 µM) of 73.4% and a viability, T/C [5] of 93.1%. It also gave a viability, T/C [6] of 92.2%, a viability, T/C (second compound 1 µM, first compound 0.316 µM) of 94% and a viability, T/C (second compound 1 µM, first compound 1 µM) of 119%. For the same molecule, the viability, T/C (second compound 1 µM, first compound 3.16 µM) was 102%, the viability, T/C (second compound 1 µM, first compound 10 µM) was 68.2% and the viability, T/C [7] was 101%. It also gave a viability, T/C [8] of 101%, a viability, T/C (second compound 3.16 µM, first compound 0.316 µM) of 91.3% and a viability, T/C (second compound 3.16 µM, first compound 1 µM) of 95.8%. The viability, T/C (second compound 3.16 µM, first compound 3.16 µM) was 93%, the viability, T/C (second compound 3.16 µM, first compound 10 µM) was 71.3% and the viability, T/C [9] was 104%. The viability, T/C [10] was 93%, the viability, T/C (second compound 10 µM, first compound 0.316 µM) was 95.6% and the viability, T/C (second compound 10 µM, first compound 1 µM) was 106%. It also gave a viability, T/C (second compound 10 µM, first compound 3.16 µM) of 104% and a viability, T/C (second compound 10 µM, first compound 10 µM) of 64.7%.

`CCN(c1cc(-c2ccc(CN3CCOCC3)cc2)cc(C(=O)NCc2c(C)cc(C)[nH]c2=O)c1C)C1CCOCC1` + CC(CO)NC(=O)c1cc(-c2ccc(Cl)cc2)nn(-c2cnn(C)c2)c1=O was tested, and the IC50 (second compound 0.1 µM) was greater than 3000 nM, the IC50 (second compound 0.316 µM) was greater than 3000 nM and the IC50 (second compound 1 µM) was greater than 3000 nM. The IC50 (second compound 3.16 µM) was greater than 3000 nM, the IC50 (second compound 10 µM) was greater than 3000 nM and the viability, T/C [11] was 95.4%. For the same molecule, the viability, T/C [12] was 86.3%, the viability, T/C [13] was 103% and the viability, T/C [14] was 100%. For the same molecule, the viability, T/C (second compound 0.1 µM, first compound 0.949 µM) was 98%, the viability, T/C (second compound 0.1 µM, first compound 3 µM) was 92.5% and the viability, T/C [15] was 110%. The viability, T/C [16] was 107%, the viability, T/C [17] was 104% and the viability, T/C [18] was 102%. The viability, T/C (second compound 0.316 µM, first compound 0.949 µM) was 92.8%, the viability, T/C (second compound 0.316 µM, first compound 3 µM) was 93% and the viability, T/C [19] was 98.3%. The viability, T/C [20] was 106%, the viability, T/C [21] was 109% and the viability, T/C [22] was 104%. The viability, T/C (second compound 1 µM, first compound 0.949 µM) was 95.7%, the viability, T/C (second compound 1 µM, first compound 3 µM) was 101% and the viability, T/C [23] was 118%. It also gave a viability, T/C [24] of 96.5%, a viability, T/C [25] of 111% and a viability, T/C [26] of 104%. The viability, T/C (second compound 3.16 µM, first compound 0.949 µM) was 93.3%, the viability, T/C (second compound 3.16 µM, first compound 3 µM) was 91% and the viability, T/C [27] was 117%. For the same molecule, the viability, T/C [28] was 98.1%, the viability, T/C [29] was 117% and the viability, T/C [30] was 100%. The viability, T/C (second compound 10 µM, first compound 0.949 µM) was 92.4% and the viability, T/C (second compound 10 µM, first compound 3 µM) was 86.5%.

In the case of `Cn1ncnc1C1c2n[nH]c(=O)c3cc(F)cc(c23)NC1c1ccc(F)cc1` (stereo not given) + CC(CO)NC(=O)c1cc(-c2ccc(Cl)cc2)nn(-c2cnn(C)c2)c1=O, the IC50 (second compound 0.1 µM) is reported as greater than 100 nM, the IC50 (second compound 0.316 µM) is reported as greater than 100 nM and the IC50 (second compound 1 µM) is reported as greater than 100 nM. It also gave an IC50 (second compound 3.16 µM) greater than 100 nM, an IC50 (second compound 10 µM) greater than 100 nM and a viability, T/C (second compound 0.1 µM, first compound 0.000316 µM) of 103%. For the same molecule, the viability, T/C (second compound 0.1 µM, first compound 0.001 µM) was 95%, the viability, T/C (second compound 0.1 µM, first compound 0.00316 µM) was 101% and the viability, T/C (second compound 0.1 µM, first compound 0.01 µM) was 102%. For the same molecule, the viability, T/C [1] was 97.2%, the viability, T/C [2] was 82% and the viability, T/C (second compound 0.316 µM, first compound 0.000316 µM) was 105%. The viability, T/C (second compound 0.316 µM, first compound 0.001 µM) was 95.5%, the viability, T/C (second compound 0.316 µM, first compound 0.00316 µM) was 103% and the viability, T/C (second compound 0.316 µM, first compound 0.01 µM) was 84.7%. For the same molecule, the viability, T/C [3] was 82%, the viability, T/C [4] was 84.1% and the viability, T/C (second compound 1 µM, first compound 0.000316 µM) was 103%. It also gave a viability, T/C (second compound 1 µM, first compound 0.001 µM) of 116%, a viability, T/C (second compound 1 µM, first compound 0.00316 µM) of 109% and a viability, T/C (second compound 1 µM, first compound 0.01 µM) of 92.1%. The viability, T/C [5] was 84%, the viability, T/C [6] was 101% and the viability, T/C (second compound 3.16 µM, first compound 0.000316 µM) was 107%. For the same molecule, the viability, T/C (second compound 3.16 µM, first compound 0.001 µM) was 105%, the viability, T/C (second compound 3.16 µM, first compound 0.00316 µM) was 109% and the viability, T/C (second compound 3.16 µM, first compound 0.01 µM) was 96.4%. For the same molecule, the viability, T/C [7] was 94.8%, the viability, T/C [8] was 85.7% and the viability, T/C (second compound 10 µM, first compound 0.000316 µM) was 94.3%. It also gave a viability, T/C (second compound 10 µM, first compound 0.001 µM) of 106%, a viability, T/C (second compound 10 µM, first compound 0.00316 µM) of 104% and a viability, T/C (second compound 10 µM, first compound 0.01 µM) of 98.8%. For the same molecule, the viability, T/C [9] was 78.1% and the viability, T/C [10] was 72.2%.

`Nc1ncn(C2CC(O)C(CO)S2)c(=O)n1` (stereo not given) + CC(CO)NC(=O)c1cc(-c2ccc(Cl)cc2)nn(-c2cnn(C)c2)c1=O was tested, and the IC50 (second compound 0.1 µM) was greater than 300 nM, the IC50 (second compound 0.316 µM) was greater than 300 nM and the IC50 (second compound 1 µM) was greater than 300 nM. The IC50 (second compound 3.16 µM) was greater than 300 nM, the IC50 (second compound 10 µM) was greater than 300 nM and the viability, T/C (second compound 0.1 µM, first compound 0.000949 µM) was 117%. For the same molecule, the viability, T/C (second compound 0.1 µM, first compound 0.003 µM) was 101%, the viability, T/C [11] was 108% and the viability, T/C [12] was 115%. The viability, T/C [13] was 85.3%, the viability, T/C [14] was 59.5% and the viability, T/C (second compound 0.316 µM, first compound 0.000949 µM) was 111%. The viability, T/C (second compound 0.316 µM, first compound 0.003 µM) was 113%, the viability, T/C [15] was 92.7% and the viability, T/C [16] was 89.5%. For the same molecule, the viability, T/C [17] was 79.9%, the viability, T/C [18] was 58.3% and the viability, T/C (second compound 1 µM, first compound 0.000949 µM) was 107%. For the same molecule, the viability, T/C (second compound 1 µM, first compound 0.003 µM) was 107%, the viability, T/C [19] was 96.9% and the viability, T/C [20] was 102%. For the same molecule, the viability, T/C [21] was 80%, the viability, T/C [22] was 55.7% and the viability, T/C (second compound 3.16 µM, first compound 0.000949 µM) was 112%. For the same molecule, the viability, T/C (second compound 3.16 µM, first compound 0.003 µM) was 107%, the viability, T/C [23] was 115% and the viability, T/C [24] was 118%. The viability, T/C [25] was 66.2%, the viability, T/C [26] was 51.9% and the viability, T/C (second compound 10 µM, first compound 0.000949 µM) was 126%. It also gave a viability, T/C (second compound 10 µM, first compound 0.003 µM) of 108%, a viability, T/C [27] of 108% and a viability, T/C [28] of 103%. For the same molecule, the viability, T/C [29] was 87.8% and the viability, T/C [30] was 58%.

From PubChem BioAssay AID1919008 (Molecular Pharmacology Branch, DTP, NCI, 2023)
